How the values were obtained:
Test in all cases: relative viability (nuclei count vs DMSO), 5 days (fraction); higher = more cells survive
Wnt-C59 + Crizotinib = compound: CC1=NC=CC(=C1)C2=CC=C(C=C2)CC(=O)NC3=CC=C(C=C3)C4=CN=CC=C4 [Wnt-C59] + C[C@@H](Oc1cc(-c2cnn(C3CCNCC3)c2)cnc1N)c1c(Cl)ccc(F)c1Cl [Crizotinib] (partner 1 µM)
In short: (§1)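 Cells from lung cancer lines were seeded into 1536-well plates and, one day later, dosed by pin tool. Treatments were either a single drug or a fixed dose of an anchor drug with five library-drug doses (not always all listed) in √10 steps. After 5 days, nuclei were stained in a one-step fixation (final 0.05% Triton X-100, 1% formaldehyde, 1 ug/ml Hoechst) and counted on 4× images, and relative viability is the treated-to-vehicle nuclei ratio, as the median of duplicate plates.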

Wnt-C59 + Pictilisib = compound: CC1=NC=CC(=C1)C2=CC=C(C=C2)CC(=O)NC3=CC=C(C=C3)C4=CN=CC=C4 [Wnt-C59] + CS(=O)(=O)N1CCN(Cc2cc3nc(-c4cccc5[nH]ncc45)nc(N4CCOCC4)c3s2)CC1 [Pictilisib] (partner 1 µM)
In short: as §1

Lapatinib + Crizotinib = compound: CS(=O)(=O)CCNCc1ccc(-c2ccc3ncnc(Nc4ccc(OCc5cccc(F)c5)c(Cl)c4)c3c2)o1 [Lapatinib] + C[C@@H](Oc1cc(-c2cnn(C3CCNCC3)c2)cnc1N)c1c(Cl)ccc(F)c1Cl [Crizotinib] (partner 1 µM)
In short: as §1

Lapatinib + Phenformin = compound: CS(=O)(=O)CCNCc1ccc(-c2ccc3ncnc(Nc4ccc(OCc5cccc(F)c5)c(Cl)c4)c3c2)o1 [Lapatinib] + N=C(N)NC(=N)NCCc1ccccc1 [Phenformin] (partner 250 µM)
In short: as §1

Cell Line	relative viability (Wnt-C59 + Crizotinib; first compound 0.001 µM)	relative viability (Wnt-C59 + Crizotinib; first compound 0.01 µM)	relative viability (Wnt-C59 + Crizotinib; first compound 0.03162 µM)	relative viability (Wnt-C59 + Crizotinib; first compound 0.1 µM)	relative viability (Wnt-C59 + Pictilisib; first compound 0.001 µM)	relative viability (Wnt-C59 + Pictilisib; first compound 0.01 µM)	relative viability (Wnt-C59 + Pictilisib; first compound 0.03162 µM)	relative viability (Wnt-C59 + Pictilisib; first compound 0.1 µM)	relative viability (Lapatinib + Crizotinib; first compound 0.02 µM)	relative viability (Lapatinib + Crizotinib; first compound 0.06325 µM)	relative viability (Lapatinib + Crizotinib; first compound 0.2 µM)	relative viability (Lapatinib + Crizotinib; first compound 0.6325 µM)	relative viability (Lapatinib + Crizotinib; first compound 2 µM)	relative viability (Lapatinib + Phenformin; first compound 0.02 µM)	relative viability (Lapatinib + Phenformin; first compound 0.06325 µM)	relative viability (Lapatinib + Phenformin; first compound 0.2 µM)	relative viability (Lapatinib + Phenformin; first compound 0.6325 µM)	relative viability (Lapatinib + Phenformin; first compound 2 µM)
EBC-1	0.191	0.188	0.204	0.224	0.444	0.349	0.299	0.418	0.181	0.179	0.178	0.174	0.18	–	–	–	–	–
PC-3 [JPC-3]	0.979	1.01	1.09	0.965	0.832	0.765	0.822	0.72	–	0.965	1.09	0.998	0.656	0.452	0.468	0.457	0.521	0.431
SK-MES-1	1.01	0.973	1.07	0.959	0.392	0.368	0.305	0.322	0.95	0.974	1.08	0.806	0.731	0.62	0.684	0.684	0.563	0.306
Calu-6	0.787	0.779	0.883	0.825	0.856	0.973	0.998	0.873	0.846	0.801	0.909	0.763	0.753	–	–	–	–	–
NCI-H838	0.839	0.826	0.902	0.916	0.463	0.516	0.439	0.42	0.838	0.764	1.07	0.855	0.757	0.685	0.381	0.675	0.683	0.511
NCI-H2009	0.941	1.11	1.06	1.03	0.744	0.825	0.841	0.784	1.09	1.05	1.05	1.03	0.959	0.528	0.484	0.507	0.513	0.457
NCI-H647	1.12	1.15	1.2	0.909	0.35	0.374	0.39	0.429	1.01	0.904	1.03	1.03	0.923	0.352	0.416	0.517	0.631	0.219
NCI-H1993	0.932	0.981	0.878	1.9	0.979	0.833	0.902	0.84	0.854	–	0.796	0.737	0.742	0.597	–	0.509	0.583	0.556
LCLC-97TM1	0.292	0.344	0.545	0.283	0.23	0.231	0.211	0.187	–	–	0.593	0.472	0.357	–	–	0.462	0.407	0.471
EKVX	1.06	1.09	0.879	0.874	0.428	0.362	0.394	0.344	0.868	0.68	0.89	0.647	0.214	0.185	0.218	0.242	0.235	0.146
NCI-H596	0.972	1	1.32	0.932	0.43	0.437	0.381	0.421	0.916	0.849	1	0.997	0.659	–	0.654	0.748	0.762	0.685
NCI-H1975	0.98	0.936	1.04	0.948	0.282	0.294	0.326	0.282	0.949	0.837	1.05	0.85	0.736	0.413	0.362	0.385	0.399	0.385
A549	0.802	0.676	0.752	0.676	0.534	0.541	0.408	0.484	0.735	0.675	0.73	0.674	0.616	–	–	0.192	0.137	0.112
HCC-78	0.343	0.284	0.303	0.339	0.22	0.185	0.226	0.257	–	0.236	0.315	0.297	0.229	–	0.631	0.588	0.856	0.654
H3255	0.86	0.959	0.942	0.751	0.565	0.359	0.431	0.49	0.752	0.687	0.888	0.702	0.311	0.37	0.327	0.314	0.299	0.224
RERF-LC-KJ	0.868	0.764	0.878	0.852	0.574	0.543	0.627	0.54	0.803	0.802	0.86	0.876	0.726	0.406	0.39	0.469	0.35	0.369
HCC-44	0.878	0.78	0.753	0.757	0.597	0.639	0.621	0.772	0.747	0.743	0.837	0.802	0.675	–	0.189	0.211	0.172	0.235
NCI-H1793	–	–	–	–	0.215	0.22	0.3	0.444	–	–	–	–	–	–	0.313	0.265	0.329	0.225
SW 900	–	–	–	–	–	–	–	–	–	–	–	–	–	–	0.484	0.554	0.554	0.531
NCI-H2342	–	–	–	–	–	–	–	–	–	–	–	–	–	0.511	0.557	0.574	0.51	0.489
NCI-H1623	–	–	–	–	–	–	–	–	–	–	–	–	–	0.546	0.494	–	0.659	0.261
NCI-H1299	1.02	0.562	0.952	0.953	0.739	0.476	0.756	0.793	0.952	1.03	0.893	0.944	0.916	–	–	–	–	–

From the supplement of paper PMC10307832
